Source: patent US9587266B2, “Mutant luciferases” (University of Massachusetts, priority 2011, dated 2017)
Values joined by “and” are separate entries in the source; they are usually repeats but may differ in a detail not shown here. Equal values may be shown once.

Key:
WT luciferase [1] = target: T1, WT luciferase (Photinus pyralis, UniProt P08659); type: biochemical; conditions: WT luciferase treated with D-luciferin; inhibitor 2 or 20 μM, enzyme titration
T1 construct: The full firefly (Photinus pyralis) luciferase gene was PCR amplified from pGL3 (Promega); GST (N, cleaved yes); made in house; host or cells: E. coli JM109
T1 sequence (P08659 whole entry): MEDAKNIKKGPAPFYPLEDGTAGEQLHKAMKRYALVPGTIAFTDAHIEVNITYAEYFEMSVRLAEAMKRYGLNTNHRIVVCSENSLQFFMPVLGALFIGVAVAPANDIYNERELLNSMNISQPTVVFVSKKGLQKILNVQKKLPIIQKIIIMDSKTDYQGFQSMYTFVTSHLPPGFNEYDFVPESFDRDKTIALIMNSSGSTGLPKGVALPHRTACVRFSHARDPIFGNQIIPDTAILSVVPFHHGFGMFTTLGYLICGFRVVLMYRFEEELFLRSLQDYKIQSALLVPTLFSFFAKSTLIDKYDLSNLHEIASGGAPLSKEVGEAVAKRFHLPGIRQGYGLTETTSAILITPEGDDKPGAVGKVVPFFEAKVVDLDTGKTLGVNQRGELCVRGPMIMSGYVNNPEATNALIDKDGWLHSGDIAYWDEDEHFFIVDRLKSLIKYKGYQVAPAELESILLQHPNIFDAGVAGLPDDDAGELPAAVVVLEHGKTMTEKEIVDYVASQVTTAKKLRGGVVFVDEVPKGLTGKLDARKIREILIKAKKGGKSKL
Experimental: Luminescence assays in 96-well plates were initiated by adding 30 μL 2× luciferin substrate in 20 mM Tris pH 7.4, 0.1 mM EDTA, 8 mM MgSO4, 4 mM ATP, and 1 mM TCEP to 30 μL of 20 nM purified luciferase in 20 mM Tris pH 7.4, 0.1 mM EDTA, 1 mM TCEP and 0.4 mg/mL BSA. Substrate titration assays were performed 3 minutes post-substrate addition in a Turner Veritas luminometer with final substrate concentrations ranging from 0.122-250 μM in the presence of 0 μM, 1 μM, or 10 μM of the luciferase inhibitor 2-(4-methoxyphenyl)benzothiazole. Enzyme titration assays were performed under the same conditions, using 0 μM, 2 or 20 μM of the luciferase inhibitor 2-(4-methoxyphenyl)benzothiazole, a constant final luciferin substrate concentration of 20 μM, and serial 2-fold dilutions of luciferase concentration from 20 nM down to 0.01 nM.

R218K luciferase [2] = target: T2, R218K luciferase (Photinus pyralis, UniProt P08659, R218K); experiment: Small molecule luciferase inhibition assay; type: biochemical; conditions: inhibitor 2 or 20 μM, enzyme titration
T2 construct: The full firefly (Photinus pyralis) luciferase gene was PCR amplified from pGL3 (Promega); GST (N, cleaved yes); made in house; host or cells: E. coli JM109
T2 sequence (P08659 whole entry R218K): as the sequence (P08659 whole entry) above, with R218K counted along it
Experimental: Enzyme titration assays were performed under the same conditions, using 0 μM, 2 or 20 μM of the luciferase inhibitor 2-(4-methoxyphenyl)benzothiazole, a constant final luciferin substrate concentration of 20 μM, and serial 2-fold dilutions of luciferase concentration from 20 nM down to 0.01 nM.

L286M mutant luciferase = target: T3, L286M mutant luciferase (Photinus pyralis, UniProt P08659, L286M); experiment: Titration assay with purified protein; type: biochemical
T3 construct: The full firefly (Photinus pyralis) luciferase gene was PCR amplified from pGL3 (Promega); GST (N, cleaved yes); made in house; host or cells: E. coli JM109
T3 sequence (P08659 whole entry L286M): as the sequence (P08659 whole entry) above, with L286M counted along it
Experimental: (§1) The PCR product was cloned into the BamH1 and NotI sites of pGEX6P-1 for bacterial expression. Mutant proteins were created using the Quickchange site-directed mutagenesis kit (Stratagene). Saturating mutagenesis was performed using the used the degenerate codon NNK at sites predicted to impact or alter substrate biding including F247, T251, L286, S347, R337, R218, Q338, Y340, A313, and I351 using the degenerate codon NNK.
(§2) Luminescence assays in 96-well plates were initiated by adding 30 μL 2× substrate in 20 mM Tris pH 7.6, 0.1 mM EDTA, 8 mM MgSO4, 4 mM ATP, and 1 mM TCEP to 30 μL of 20 nM purified luciferase in 20 mM Tris pH 7.6, 0.1 mM EDTA, 1 mM TCEP and 0.4 mg/mL BSA.

T251S mutant luciferase = target: T4, T251S mutant luciferase (Photinus pyralis, UniProt P08659, T251S); experiment: Titration assay with purified protein; type: biochemical
T4 construct: The full firefly (Photinus pyralis) luciferase gene was PCR amplified from pGL3 (Promega); GST (N, cleaved yes); made in house; host or cells: E. coli JM109
T4 sequence (P08659 whole entry T251S): as the sequence (P08659 whole entry) above, with T251S counted along it
Experimental: as §1, §2

R218K mutant luciferase = target: T5, R218K mutant luciferase (Photinus pyralis, UniProt P08659, R218K); type: biochemical; conditions: R218K luciferase, purified protein
T5 construct: The full firefly (Photinus pyralis) luciferase gene was PCR amplified from pGL3 (Promega); GST (N, cleaved yes); made in house; host or cells: E. coli JM109
T5 sequence (P08659 whole entry R218K): as the sequence (P08659 whole entry) above, with R218K counted along it
Experimental: as §1, §2

S347A mutant luciferase = target: T6, S347A mutant luciferase (Photinus pyralis, UniProt P08659, S347A); type: biochemical; conditions: for Apparent Vmax: purified protein
T6 construct: The full firefly (Photinus pyralis) luciferase gene was PCR amplified from pGL3 (Promega); GST (N, cleaved yes); made in house; host or cells: E. coli JM109
T6 sequence (P08659 whole entry S347A): as the sequence (P08659 whole entry) above, with S347A counted along it
Experimental: as §1, §2

F247L mutant luciferase = F247L mutant luciferase (Photinus pyralis, UniProt P08659, F247L); conditions: F247L mutant relative to wild-type luciferase
Sequence of F247L mutant luciferase (P08659 whole entry F247L): as the sequence (P08659 whole entry) above, with F247L counted along it
Experimental: as §1, with “NNK. The point mutants S347A, L286A, A348G, E311A, I351A, A313G, R337A, H245A and L342A were made independently.” for “NNK.”
as §2, with “BSA. Titration assays were performed 3 minutes post-substrate addition in a Turner Veritas luminometer with final substrate concentrations ranging from 0.122-250 μM or 0.244-500 μM.” for “BSA.”

WT luciferase [3] = target: T1, WT luciferase; experiment: Titration assay with purified protein; type: biochemical
Experimental: as §1, with “NNK. The point mutants S347A, L286A, A348G, E311A, I351A, A313G, R337A, H245A and L342A were made independently.” for “NNK.”
as §2, with “BSA. Titration assays were performed 3 minutes post-substrate addition in a Turner Veritas luminometer with final substrate concentrations ranging from 0.122-250 μM or 0.244-500 μM.” for “BSA.”

R218K + L342A luciferase = target: T7, R218K + L342A luciferase (Photinus pyralis, UniProt P08659, L342A/R218K); type: biochemical
T7 construct: The full firefly (Photinus pyralis) luciferase gene was PCR amplified from pGL3 (Promega); GST (N, cleaved yes); made in house; host or cells: E. coli JM109
T7 sequence (P08659 whole entry R218K/L342A): as the sequence (P08659 whole entry) above, with R218K, L342A counted along it
Experimental: (§3) Purified mutant luciferases were used in bioluminescence emission and burst kinetics scans. Each purified protein in 20 mM Tris pH 7.6, 0.1 mM EDTA, 1 mM TCEP and 0.4 mg/mL BSA was added to 2× substrate in 20 mM Tris pH 7.6, 0.1 mM EDTA, 8 mM MgSO4, 4 mM ATP, and 1 mM TCEP in a cuvette.
(§4) Luciferase was rapidly injected into a cuvette containing substrate, and the emission from 400-800 nm was recorded in a SPEX FluoroMax-3 fluorimeter with closed excitation slits.

WT luciferase [4] = target: T1, WT luciferase; type: biochemical; conditions: for Wavelength at Max. Emission: Table 2
Experimental: as §3, §4

F247L L286M luciferase = target: T8, F247L L286M luciferase (Photinus pyralis, UniProt P08659, F247L/L286M); experiment: Bioluminescence emission scan; type: biochemical
T8 construct: The full firefly (Photinus pyralis) luciferase gene was PCR amplified from pGL3 (Promega); GST (N, cleaved yes); made in house; host or cells: E. coli JM109
T8 sequence (P08659 whole entry F247L/L286M): as the sequence (P08659 whole entry) above, with F247L, L286M counted along it
Experimental: (§5) Purified mutant luciferases were used in bioluminescence emission and burst kinetics scans.
as §4

L286M + S347A luciferase = target: T9, L286M + S347A luciferase (Photinus pyralis, UniProt P08659, L286M/S347A); experiment: Bioluminescence emission scan; type: biochemical
T9 construct: The full firefly (Photinus pyralis) luciferase gene was PCR amplified from pGL3 (Promega); GST (N, cleaved yes); made in house; host or cells: E. coli JM109
T9 sequence (P08659 whole entry L286M/S347A): as the sequence (P08659 whole entry) above, with L286M, S347A counted along it
Experimental: as §5, §4

L342A luciferase = target: T10, L342A luciferase (Photinus pyralis, UniProt P08659, L342A); experiment: Bioluminescence emission scan; type: biochemical
T10 construct: The full firefly (Photinus pyralis) luciferase gene was PCR amplified from pGL3 (Promega); GST (N, cleaved yes); made in house; host or cells: E. coli JM109
T10 sequence (P08659 whole entry L342A): as the sequence (P08659 whole entry) above, with L342A counted along it
Experimental: as §5, §4

R218K luciferase [5] = target: T2, R218K luciferase; experiment: Bioluminescence emission scan; type: biochemical
Experimental: as §5, §4

S347A luciferase = target: T11, S347A luciferase (Photinus pyralis, UniProt P08659, S347A); experiment: Bioluminescence emission scan; type: biochemical
T11 construct: The full firefly (Photinus pyralis) luciferase gene was PCR amplified from pGL3 (Promega); GST (N, cleaved yes); made in house; host or cells: E. coli JM109
T11 sequence (P08659 whole entry S347A): as the sequence (P08659 whole entry) above, with S347A counted along it
Experimental: as §5, §4

S347T luciferase = target: T12, S347T luciferase (Photinus pyralis, UniProt P08659, S347T); experiment: Bioluminescence emission scan; type: biochemical
T12 construct: The full firefly (Photinus pyralis) luciferase gene was PCR amplified from pGL3 (Promega); GST (N, cleaved yes); made in house; host or cells: E. coli JM109
T12 sequence (P08659 whole entry S347T): as the sequence (P08659 whole entry) above, with S347T counted along it
Experimental: as §5, §4

T251S L286M luciferase = target: T13, T251S L286M luciferase (Photinus pyralis, UniProt P08659, L286M/T251S); experiment: Bioluminescence emission scan; type: biochemical
T13 construct: The full firefly (Photinus pyralis) luciferase gene was PCR amplified from pGL3 (Promega); GST (N, cleaved yes); made in house; host or cells: E. coli JM109
T13 sequence (P08659 whole entry T251S/L286M): as the sequence (P08659 whole entry) above, with T251S, L286M counted along it
Experimental: as §5, §4

F247A luciferase = target: T14, F247A luciferase (Photinus pyralis, UniProt P08659, F247A); experiment: Bioluminescence emission scan; type: biochemical
T14 construct: The full firefly (Photinus pyralis) luciferase gene was PCR amplified from pGL3 (Promega); GST (N, cleaved yes); made in house; host or cells: E. coli JM109
T14 sequence (P08659 whole entry F247A): as the sequence (P08659 whole entry) above, with F247A counted along it
Experimental: as §5, §4

F247R luciferase = target: T15, F247R luciferase (Photinus pyralis, UniProt P08659, F247R); experiment: Bioluminescence emission scan; type: biochemical
T15 construct: The full firefly (Photinus pyralis) luciferase gene was PCR amplified from pGL3 (Promega); GST (N, cleaved yes); made in house; host or cells: E. coli JM109
T15 sequence (P08659 whole entry F247R): as the sequence (P08659 whole entry) above, with F247R counted along it
Experimental: as §5, §4

F247S luciferase = target: T16, F247S luciferase (Photinus pyralis, UniProt P08659, F247S); experiment: Bioluminescence emission scan; type: biochemical
T16 construct: The full firefly (Photinus pyralis) luciferase gene was PCR amplified from pGL3 (Promega); GST (N, cleaved yes); made in house; host or cells: E. coli JM109
T16 sequence (P08659 whole entry F247S): as the sequence (P08659 whole entry) above, with F247S counted along it
Experimental: as §5, §4

F247V luciferase = target: T17, F247V luciferase (Photinus pyralis, UniProt P08659, F247V); experiment: Bioluminescence emission scan; type: biochemical
T17 construct: The full firefly (Photinus pyralis) luciferase gene was PCR amplified from pGL3 (Promega); GST (N, cleaved yes); made in house; host or cells: E. coli JM109
T17 sequence (P08659 whole entry F247V): as the sequence (P08659 whole entry) above, with F247V counted along it
Experimental: as §5, §4

L286M luciferase = target: T18, L286M luciferase (Photinus pyralis, UniProt P08659, L286M); experiment: Bioluminescence emission scan; type: biochemical
T18 construct: The full firefly (Photinus pyralis) luciferase gene was PCR amplified from pGL3 (Promega); GST (N, cleaved yes); made in house; host or cells: E. coli JM109
T18 sequence (P08659 whole entry L286M): as the sequence (P08659 whole entry) above, with L286M counted along it
Experimental: as §5, §4

L286Y luciferase = target: T19, L286Y luciferase (Photinus pyralis, UniProt P08659, L286Y); experiment: Bioluminescence emission scan; type: biochemical
T19 construct: The full firefly (Photinus pyralis) luciferase gene was PCR amplified from pGL3 (Promega); GST (N, cleaved yes); made in house; host or cells: E. coli JM109
T19 sequence (P08659 whole entry L286Y): as the sequence (P08659 whole entry) above, with L286Y counted along it
Experimental: as §5, §4

T251N luciferase = target: T20, T251N luciferase (Photinus pyralis, UniProt P08659, T251N); experiment: Bioluminescence emission scan; type: biochemical
T20 construct: The full firefly (Photinus pyralis) luciferase gene was PCR amplified from pGL3 (Promega); GST (N, cleaved yes); made in house; host or cells: E. coli JM109
T20 sequence (P08659 whole entry T251N): as the sequence (P08659 whole entry) above, with T251N counted along it
Experimental: as §5, §4

T251Q luciferase = target: T21, T251Q luciferase (Photinus pyralis, UniProt P08659, T251Q); experiment: Bioluminescence emission scan; type: biochemical
T21 construct: The full firefly (Photinus pyralis) luciferase gene was PCR amplified from pGL3 (Promega); GST (N, cleaved yes); made in house; host or cells: E. coli JM109
T21 sequence (P08659 whole entry T251Q): as the sequence (P08659 whole entry) above, with T251Q counted along it
Experimental: as §5, §4

T251S luciferase = target: T22, T251S luciferase (Photinus pyralis, UniProt P08659, T251S); experiment: Bioluminescence emission scan; type: biochemical
T22 construct: The full firefly (Photinus pyralis) luciferase gene was PCR amplified from pGL3 (Promega); GST (N, cleaved yes); made in house; host or cells: E. coli JM109
T22 sequence (P08659 whole entry T251S): as the sequence (P08659 whole entry) above, with T251S counted along it
Experimental: as §5, §4

[6] = read-out: Apparent Km, 3 minutes post-substrate addition

COc1ccc(-c2nc3ccccc3s2)cc1 [2-(4-methoxyphenyl)-benzothiazole, 2-(4-methoxyphenyl)benzothiazole]
effect of luciferase inhibitor on light output (WT luciferase [1]): strongly inhibited
effect of luciferase inhibitor on light output (R218K luciferase [2]; R218K luciferase treated with D-luciferin): strongly inhibited
effect of luciferase inhibitor on light output (R218K luciferase [2]; R218K luciferase with CycLuc2 as substrate): largely unaffected

Nc1ccc2nc(C3=N[C@@H](C(=O)O)CS3)sc2c1 [6′-NH2LH2, 6′-aminoluciferin]
Apparent Vmax (L286M mutant luciferase): 62 ± 0.7 ×10^−5 cps
Apparent Vmax (T251S mutant luciferase): 51 ± 0.3 ×10^−5 cps
Apparent Vmax (R218K mutant luciferase): 157 ± 3.7 ×10^−5 cps
Apparent Vmax (S347A mutant luciferase): 91 ± 0.4 ×10^−5 cps
improvement of maximal sustained light emission (F247L mutant luciferase): 4.9 fold and > 5 fold
Apparent Vmax (WT luciferase [3]): 35 ± 0.25 ×10^−5 cps
Maximum Emission Wavelength of Selected Substrate (R218K + L342A luciferase): 594 nm
Wavelength at Max. Emission (WT luciferase [4]): 595 nm
Maximum Emission Wavelength of Selected Substrate (WT luciferase [4]; Table 3): 594 nm
Wavelength at Max. Emission (F247L L286M luciferase): 592 nm
Maximum Emission Wavelength of Selected Substrate (L286M + S347A luciferase): 589 nm
Maximum Emission Wavelength of Selected Substrate (L342A luciferase): 591 nm
Maximum Emission Wavelength of Selected Substrate (R218K luciferase [5]): 599 nm
Wavelength at Max. Emission (S347A luciferase): 591 nm
Wavelength at Max. Emission (S347T luciferase): 583 nm
Wavelength at Max. Emission (T251S L286M luciferase): 602 nm

O=C(O)[C@H]1CSC(c2nc3ccc(O)cc3s2)=N1 [D-Luciferin, D-luciferin]
Apparent Vmax (L286M mutant luciferase): 1060 ± 26 ×10^−5 cps
Km (L286M mutant luciferase; [6]): 19.1 ± 1.3 µM
Apparent Vmax (T251S mutant luciferase): 1054 ± 19 ×10^−5 cps
Km (T251S mutant luciferase; [6]): 114 ± 3.4 µM
Apparent Vmax (R218K mutant luciferase): 1541 ± 21 ×10^−5 cps
Km (R218K mutant luciferase; [6]): 106 ± 2.6 µM
Apparent Vmax (S347A mutant luciferase): 142.8 ± 3 ×10^−5 cps
Km (S347A mutant luciferase; read-out: Apparent Km, purified protein, 3 minutes post-substrate addition): 76.6 ± 3.1 µM
Apparent Vmax (WT luciferase [3]): 1079 ± 13 ×10^−5 cps
Wavelength at Max. Emission (WT luciferase [4]): 554 nm
Wavelength at Max. Emission (F247A luciferase): 591 nm
Wavelength at Max. Emission (F247R luciferase): 605 nm
Wavelength at Max. Emission (F247S luciferase): 588 nm
Wavelength at Max. Emission (F247V luciferase): 600 nm
Wavelength at Max. Emission (L286M luciferase): 564 nm
Wavelength at Max. Emission (L286Y luciferase): 606 nm
Wavelength at Max. Emission (S347A luciferase): 573 nm
Wavelength at Max. Emission (S347T luciferase): 561 nm
Wavelength at Max. Emission (T251N luciferase): 555 nm
Wavelength at Max. Emission (T251Q luciferase): 626 nm
Wavelength at Max. Emission (T251S luciferase): 553 nm
